The values that follow come from ChEMBL document CHEMBL5131456, “Amyloidogenic immunoglobulin light chain kinetic stabilizers comprising a simple urea linker module reveal a novel binding sub-site” (Bioorg Med Chem Lett, 2022).

Structures are written as SMILES. pEC50: −log10 of the molar value.

For one assay, the species on record is Homo sapiens. The assay is described as follows: Stabilization of unlabeled amyloidogenic full length immunoglobulin light chain dimer (unknown origin) assessed as fold proteinase K protection at 10 uM by size-exclusion chromatography.
The nature of assay [1]: Stabilization of fluorescein-labelled amyloidogenic full length immunoglobulin light chain dimer (unknown origin) assessed as concentration of stabilizer that affords 50% maximal proteinase K protection by protease coupled fluorescence polarization assay. More on the design: species or system Homo sapiens. For orientation: In fluorescence polarisation assays a small probe gives low polarisation when free and higher when bound to something large.

A short description of assay [2]: Stabilization of fluorescein-labelled amyloidogenic full length immunoglobulin light chain dimer T46L/F49Y mutant (unknown origin) assessed as concentration of stabilizer that affords 50% maximal proteinase K protection by protease coupled fluorescence polarization assay. More on the design: species or system Homo sapiens.

By pEC50 is commonly meant the negative decadic logarithm of the EC50, by convention in mol/L.

As for `CCN(CC)c1ccc2c(C)cc(=O)oc2c1`, the fold change (FC) in the assay listed under Homo sapiens came out at 0.28.
With `CCN(CC)c1ccc2c(C)c(CCNC(=O)NCc3cccnc3)c(=O)oc2c1`, the negative logarithm of the EC50 (pEC50) in assay [1] is 6.34; in assay [2] it was 6.09. Besides, in the assay filed under Homo sapiens, the fold change (FC) was found to be 0.66.
For the compound `CCN(CC)c1ccc2c(C)c(CC(=O)NCCc3ccccc3)c(=O)oc2c1`, the pEC50 in assay [1] was 5.74; in assay [2], 6.07. For the same compound, the fold change (FC) in the assay filed under Homo sapiens came to 0.28.
Consider `CCN(CC)c1ccc2c(C)c(CCC(=O)NCCN(C)C)c(=O)oc2c1`, for which the pEC50 in assay [1] was 5.17; in assay [2], below 5.00. The fold change (FC) in the assay listed under Homo sapiens amounted to 0.13.
On the same counts, the results for `CCN(CC)c1ccc2c(C)c(CCNC(=O)NCc3cccc(-c4c[nH]cn4)c3)c(=O)oc2c1` are 6.85, 7.13 and 0.81.
On the same counts, the results for `CCN(CC)c1ccc2c(C)c(CCNC(=O)CCc3cccnc3)c(=O)oc2c1` are 5.93, 5.79 and 0.55.
On the same counts, the results for `CCN(CC)c1ccc2c(C)c(CC(=O)NCCN(C)C)c(=O)oc2c1` are 5.76, 5.58 and 0.39.
As to `CCN(CC)c1ccc2c(C)c(CCNC(=O)NCc3ccccc3)c(=O)oc2c1`, the pEC50 in assay [1] is 6.46; in assay [2], 6.42. Also, the fold change (FC) in the assay listed under Homo sapiens is 0.69.
In the case of `CCN(CC)c1ccc2c(C)c(CCNC(=O)CCc3ccccc3)c(=O)oc2c1`, the results for the pEC50 in assay [1] and in assay [2] were 6.31 and 6.29, respectively. Also, the fold change (FC) in the assay filed under Homo sapiens stood at 0.17.
For `CCN(CC)c1ccc2c(C)c(CCC(=O)NCCc3cccnc3)c(=O)oc2c1`, in that order: 6.20, 5.68 and 0.61.
On the same counts, the results for `CCN(CC)c1ccc2c(C)c(CCNC(=O)NCCc3cccnc3)c(=O)oc2c1` are 5.98, 5.69 and 0.5.
Regarding `CCN(CC)c1ccc2c(C)c(CCOC(=O)NCc3cccc(-c4c[nH]cn4)c3)c(=O)oc2c1`, the fold change (FC) in the assay filed under Homo sapiens worked out at 0.91.
For `CCN(CC)c1ccc2c(C)c(CCNC(=O)NCc3cncc4ccccc34)c(=O)oc2c1`, the figures for the negative logarithm of the EC50 (pEC50) in assay [1] and in assay [2] were 6.63 and 6.42, respectively. Further, in the assay listed under Homo sapiens, the fold change (FC) was determined as 0.74.
On the same counts, the results for `CCN(CC)c1ccc2c(C)c(CCNC(=O)NCc3ccc4ccccc4c3)c(=O)oc2c1` are 6.95, 7.56 and 0.66.
